Laboratory results reported in ChEMBL document CHEMBL2074345, “Expression cloning and characterization of a novel multispecific organic anion transporter” (J Biol Chem, 1997).

Legend:
[1] = molecular target: T1, Solute carrier family 22 member 6 (Rattus norvegicus, UniProt O35956); experiment: TP_TRANSPORTER: inhibition of PAH uptake (PAH: 2 uM, Ethacrynic acid; 2000 uM) in Xenopus laevis oocytes; assay type: functional, cell-based, Oocyte; settings: probe PAH (2 uM)
T1 sequence (O35956 whole entry): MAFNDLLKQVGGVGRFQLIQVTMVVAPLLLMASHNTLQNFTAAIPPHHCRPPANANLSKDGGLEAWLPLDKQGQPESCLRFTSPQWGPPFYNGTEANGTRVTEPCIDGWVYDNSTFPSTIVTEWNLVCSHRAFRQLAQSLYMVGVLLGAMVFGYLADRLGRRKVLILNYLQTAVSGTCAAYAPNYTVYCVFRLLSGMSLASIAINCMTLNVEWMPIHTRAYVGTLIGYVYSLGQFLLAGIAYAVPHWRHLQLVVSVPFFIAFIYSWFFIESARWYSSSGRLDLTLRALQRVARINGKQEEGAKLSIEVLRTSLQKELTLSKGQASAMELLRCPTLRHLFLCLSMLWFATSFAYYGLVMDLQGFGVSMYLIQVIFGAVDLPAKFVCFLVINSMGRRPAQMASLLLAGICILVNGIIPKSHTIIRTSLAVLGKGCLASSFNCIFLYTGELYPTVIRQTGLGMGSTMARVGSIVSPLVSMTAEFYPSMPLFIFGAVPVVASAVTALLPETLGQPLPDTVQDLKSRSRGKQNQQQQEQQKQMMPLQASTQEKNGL

[2] = molecular target: T1, Solute carrier family 22 member 6; experiment: TP_TRANSPORTER: uptake in Xenopus laevis oocytes; assay type: functional, cell-based; settings: oocyte
[3] = molecular target: T1, Solute carrier family 22 member 6; experiment: TP_TRANSPORTER: inhibition of PAH uptake (PAH: 2 uM, Valproic acid; 2000 uM) in Xenopus laevis oocytes; assay type: functional, cell-based, Oocyte; settings: probe PAH (2 uM)
[4] = molecular target: T1, Solute carrier family 22 member 6; experiment: TP_TRANSPORTER: inhibition of PAH uptake (PAH: 2 uM, Nalidixate; 2000 uM) in Xenopus laevis oocytes; assay type: functional, cell-based, Oocyte; settings: probe PAH (2 uM)

Activity [2] | SMILES | other results
 | C=C(CC)C(=O)c1ccc(OCC(=O)O)c(Cl)c1Cl [ETHACRYNIC ACID] | inhibition at 2000 µM [1]: > 85%
substrate [+] | O=c1[nH]c(=O)c2[nH]c(=O)[nH]c2[nH]1 [URIC ACID] | 
is not a substrate [-] | CC[N+](CC)(CC)CC [TETRYLAMMONIUM] | 
substrate [+] | O=C(O)CCC(=O)C(=O)O [ALPHA-KETOGLUTARIC ACID] | 
 | CCCC(CCC)C(=O)O [VALPROIC ACID] | inhibition at 2000 µM [3]: > 85%
 | CCn1cc(C(=O)O)c(=O)c2ccc(C)nc21 [NALIDIXIC ACID] | inhibition at 2000 µM [4]: > 85%
substrate [+] | Nc1nc2c(ncn2[C@@H]2O[C@@H]3COP(=O)(O)O[C@H]3[C@H]2O)c(=O)[nH]1 | 
